# Assay results published in US20160075653A1, “NEMATICIDAL N-(PHENYLCYCLOALKYL)CARBOXAMIDES AND N-(PHENYLCYCLOALKYL)THIOCARBOXAMIDES” (BAYER CROPSCIENCE AKTIENGESELLSCHAFT, priority 2013, published 2016).
# Key:
# [1] = Measurement of log P values by HPLC on reversed phase columns (methods [a] pH 2.3, [b] pH 2.7, [c] pH 7.8); type: physicochemical
# How it was run: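 Determined per EEC Directive 79/831 Annex V.A8 by reversed-phase HPLC, 10-95% acetonitrile gradient: [a] pH 2.3, 0.1% phosphoric acid; [b] LC-MS, pH 2.7, 0.1% formic acid; [c] LC-MS, pH 7.8, 0.001 molar ammonium hydrogen carbonate. Calibrated with C3-C16 alkan-2-ones by retention-time interpolation.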
# Meloidogyne incognita = Meloidogyne incognita test (MELGIN), gall formation on salad seedlings; type: in vivo; settings: application rate 20 ppm, after 14 days
# Description: Meioidovnve incomita—Test (MELGIN)
# Solvent: 125.0 parts by weight of acetone
# To produce a suitable preparation of active compound, 1 part by weight of active compound is mixed with the stated amount of solvent, and the concentrate is diluted with water to the desired concentration.
# Vessels are filled with sand, a solution of the active ingredient, a suspension containing eggs and larvae of the southern root-knot nematode (Meloidogyne incognita) and salad seeds. The salad seeds germinate and the seedlings grow. Galls develop in the roots.
# After 14 days the nematicidal activity is determined on the basis of the percentage of gall formation. 100% means that no galls were found; 0% means the number of galls found on the roots of the treated plants was equal to that in untreated control plants.
# [2] = HPLC reversed phase, method [b] (pH 2.7)
# [3] = HPLC on reversed phase column, method [b], pH 2.7
# [4] = HPLC on reversed phase column, method [c], pH 7.8
"logP [1, 3]","logP [1, 4]",Compound,"logP [1, 2]",nematicidal activity (percentage of gall formation; 100% = no galls) (Meloidogyne incognita) [%]
,,Cn1cc(C(=O)N[C@@H]2CC[C@@H]2c2cc(F)ccc2C(F)(F)F)c(C(F)F)n1 (relative stereo) [Compound 556],2.85^[b],90
,,O=C(N[C@@H]1C[C@@H]1c1ccc(Cl)cc1Cl)c1ccccc1[N+](=O)[O-] (relative stereo) [Compound 558],2.94^[b],100
,,O=C(N[C@@H]1CC[C@@H]1c1cc(F)ccc1C(F)(F)F)c1nccnc1Cl (relative stereo) [Compound 559],2.88^[b],100
,,O=C(N[C@@H]1CC[C@@H]1c1cc(F)ccc1C(F)(F)F)c1ccccc1Br (relative stereo) [Compound 560],3.38^[b],100
,,O=C(N[C@@H]1CC[C@@H]1c1c(F)cccc1C(F)(F)F)c1ccccc1[N+](=O)[O-] (relative stereo) [Compound 561],3.03^[b],100
,,O=C(N[C@@H]1CC[C@@H]1c1c(F)cccc1C(F)(F)F)c1ccccc1Br (relative stereo) [Compound 563],3.46^[b],100
,,O=C(N[C@@H]1CC[C@@H]1c1c(F)cccc1C(F)(F)F)c1c(F)cccc1F (relative stereo) [Compound 564],3.25^[b],100
,,O=C(N[C@@H]1C[C@@H]1c1ccc(Cl)cc1Cl)c1nccnc1C(F)(F)F (relative stereo) [Compound 566],3.11^[b],90
,,O=C(N[C@@H]1C[C@@H]1c1ccc(Cl)cc1Cl)c1nccnc1Cl (relative stereo) [Compound 567],2.75^[b],90
,,O=C(N[C@@H]1CC[C@@H]1c1cc(F)ccc1C(F)(F)F)c1sccc1I (relative stereo) [Compound 570],3.79^[b],100
,,O=C(N[C@@H]1CC[C@@H]1c1cc(F)ccc1C(F)(F)F)c1cccnc1Cl (relative stereo) [Compound 571],2.75^[b],100
,,O=C(N[C@@H]1CC[C@@H]1c1cc(F)ccc1C(F)(F)F)c1cccnc1C(F)(F)F (relative stereo) [Compound 572],3.06^[b],100
,,Cn1cc(C(=O)N[C@@H]2CC[C@@H]2c2c(F)cccc2C(F)(F)F)c(C(F)F)n1 (relative stereo) [Compound 574],2.91^[b],100
,,O=C(N[C@@H]1CC[C@@H]1c1c(F)cccc1C(F)(F)F)c1cccnc1Cl (relative stereo) [Compound 575],2.83^[b],100
,,O=C(N[C@@H]1CC[C@@H]1c1c(F)cccc1C(F)(F)F)c1nccnc1Cl (relative stereo) [Compound 576],3.02^[b],100
,,O=C(N[C@@H]1CC[C@@H]1c1c(F)cccc1C(F)(F)F)c1cccnc1C(F)(F)F (relative stereo) [Compound 577],3.81^[b],100
,,O=C(N[C@@H]1CC[C@@H]1c1c(F)cccc1C(F)(F)F)c1sccc1I (relative stereo) [Compound 584],4.00^[b],100
,,O=C(N[C@@H]1CC[C@@H]1c1c(F)cccc1C(F)(F)F)c1ccccc1C(F)(F)F (relative stereo) [Compound 585],3.60^[b],100
,,O=C(N[C@@H]1CC[C@@H]1c1cc(F)ccc1C(F)(F)F)c1ccccc1C(F)(F)F (relative stereo) [Compound 586],3.53^[b],100
,,O=C(N[C@@H]1CC[C@@H]1c1cc(F)ccc1C(F)(F)F)c1cccnc1 (relative stereo) [Compound 587],2.22^[b],90
,,O=C(N[C@@H]1CC[C@@H]1c1cccc(F)c1C(F)(F)F)c1ccccc1C(F)(F)F (relative stereo) [Compound 589],3.38^[b],100
3.73^[b],,O=C(N[C@@H]1CC[C@@H]1c1cccc(F)c1C(F)(F)F)c1ccc(Cl)cc1Cl (relative stereo) [Compound 594],,90
3.47^[b],,O=C(N[C@@H]1CC[C@@H]1c1cccc(F)c1C(F)(F)F)c1ccc(Cl)cc1 (relative stereo) [Compound 595],,100
2.98^[b],2.99^[c];,O=C(N[C@@H]1C[C@@H]1c1ccc(Cl)cc1Cl)c1ncccc1Br (relative stereo) [Compound 608],,100
2.62^[b],2.61^[c];,CS(=O)(=O)c1ccccc1C(=O)N[C@@H]1C[C@@H]1c1ccc(Cl)cc1Cl (relative stereo) [Compound 609],,100
3.02^[b],2.89^[c];,Cc1occc1C(=O)N[C@@H]1C[C@@H]1c1ccc(Cl)cc1Cl (relative stereo) [Compound 611],,90
2.06^[b],,O=C(N[C@@H]1CC[C@@H]1c1ccccc1C(F)(F)F)c1cccnc1 (relative stereo) [Compound 619],,90
2.94^[b],,O=C(N[C@@H]1CC[C@@H]1c1cccc(F)c1C(F)(F)F)c1ccccc1[N+](=O)[O-] (relative stereo) [Compound 630],,100
2.12^[b],,O=C(N[C@@H]1CC[C@@H]1c1cccc(F)c1C(F)(F)F)c1cccnc1 (relative stereo) [Compound 631],,90

Compound,"logP [1, 3]","logP [1, 4]","logP [1, 2]",nematicidal activity (percentage of gall formation; 100% = no galls) (Meloidogyne incognita) [%]
O=C(N[C@@H]1CC[C@@H]1c1cccc(F)c1C(F)(F)F)c1ccccc1 (relative stereo) [Compound 592],3.01^[b],,,100
O=C(N[C@@H]1CC[C@@H]1c1cccc(F)c1C(F)(F)F)c1ccccc1I (relative stereo) [Compound 599],3.39^[b],,,100
O=C(N[C@@H]1CC[C@@H]1c1cccc(F)c1C(F)(F)F)c1ccccc1Cl (relative stereo) [Compound 601],3.23^[b],,,100
O=C(N[C@@H]1CC[C@@H]1c1cccc(F)c1C(F)(F)F)c1ncccc1Cl (relative stereo) [Compound 617],2.97^[b],,,100
O=C(N[C@@H]1CC[C@@H]1c1ccccc1C(F)(F)F)c1nccnc1Cl (relative stereo) [Compound 623],2.79^[b],,,100
